Results: ChEMBL document CHEMBL1201862, “PubChem BioAssay data set” (2004)
The source made the active and inactive calls.

How the values were obtained:
[1] = biological target: E3 ubiquitin-protein ligase Mdm2 (Homo sapiens, UniProt Q00987); experiment: enhancers of MDM2-luciferase reporter signal, concentration-effect titration, project on inhibitors of MDM2 ubiquitin ligase, cellular assay, luminescent readout, 384-well plate format (AID 1394); type: functional;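 also: MDM2 E3 inhibitors raise luminescence so EC50 is for signal enhancement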
[2] = biological target: Photoreceptor-specific nuclear receptor (Homo sapiens, UniProt Q9Y5X4); experiment: NR2E3 inverse agonists, dose response, biochemical, TR-FRET (AID 463256); type: functional
[3] = biological target: Peroxisome proliferator-activated receptor gamma/Nuclear receptor corepressor 2 (Homo sapiens, UniProt P37231+Q9Y618); experiment: Counterscreen for NR2E3 inverse agonists: TR-FRET-based biochemical high throughput dose response assay to identify inverse agonists of the interaction between peroxisome proliferator-activated receptor gamma (PPARg) and nuclear receptor co-repressor 2 (NCOR2).; type: functional
[4] = biological target: T1, Neuropeptide Y receptor type 1 (Homo sapiens, UniProt P25929); experiment: Fluorescence-based counterscreen for agonists of NPY-Y2: cell-based high-throughput dose response assay for agonists of NPY-Y1.; type: functional
T1 sequence (P25929 whole entry): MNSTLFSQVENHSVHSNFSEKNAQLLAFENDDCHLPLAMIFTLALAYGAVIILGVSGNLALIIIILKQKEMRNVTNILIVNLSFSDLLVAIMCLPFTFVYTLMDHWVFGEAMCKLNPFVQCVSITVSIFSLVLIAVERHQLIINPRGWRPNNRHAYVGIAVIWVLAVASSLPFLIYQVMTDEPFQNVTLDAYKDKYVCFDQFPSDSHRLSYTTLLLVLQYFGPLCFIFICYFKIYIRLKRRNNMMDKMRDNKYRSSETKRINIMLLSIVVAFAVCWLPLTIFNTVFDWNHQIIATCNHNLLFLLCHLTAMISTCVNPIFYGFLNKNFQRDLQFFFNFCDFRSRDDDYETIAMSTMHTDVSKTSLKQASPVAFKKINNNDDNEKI

[5] = biological target: T2, Neuropeptide Y receptor type 2 (Homo sapiens, UniProt P49146); experiment: Fluorescence-based cell-based high-throughput dose response assay for agonists of NPY-Y2. [Related pubchem assays: 1703 (Screening assay (CNGC inhibitors).), 1359 (Screening assay (NPY-Y2 potentiators or agonists).), 1304 (Screening assay (NPY-Y1 potentiators or agonists).), 1710 (Screening assay (NPY-Y2 agonists).), 1791 (Summary AID.)]; type: functional
T2 sequence (P49146 whole entry): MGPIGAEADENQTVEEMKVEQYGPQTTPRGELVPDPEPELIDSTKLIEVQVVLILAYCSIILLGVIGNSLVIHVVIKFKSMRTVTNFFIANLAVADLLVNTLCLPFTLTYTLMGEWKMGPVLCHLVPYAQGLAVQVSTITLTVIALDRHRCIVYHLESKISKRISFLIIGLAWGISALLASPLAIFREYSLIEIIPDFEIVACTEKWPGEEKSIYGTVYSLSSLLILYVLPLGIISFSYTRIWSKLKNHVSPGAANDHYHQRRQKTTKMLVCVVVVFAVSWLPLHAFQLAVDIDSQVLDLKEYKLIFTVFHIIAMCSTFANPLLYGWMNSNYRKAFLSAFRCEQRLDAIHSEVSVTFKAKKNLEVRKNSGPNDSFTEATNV

HEK293 [6] = experiment: Fluorescence-based counterscreen for potentiators or agonists of NPY-Y2: cell-based high-throughput dose response assay to identify inhibitors of cyclic nucleotide gated ion channel (CNGC) activity. In this assay, the parental HEK293 cell line transfected with a cyclic-nucleotide gated ion channel (CNGC)-based cAMP sensor is used to measure inhibition of isoproterenol-induced CNGC activity by test compound.; type: functional; settings: Homo sapiens
[7] = biological target: SWI/SNF-related matrix-associated actin-dependent regulator of chromatin subfamily A member 2 (Homo sapiens, UniProt P51531); experiment: Luminescence-based cell-based high throughput dose response assay to identify activators of the function of SWI/SNF related, matrix associated, actin dependent regulator of chromatin, subfamily a, member 2 (SMARCA2, BRM).; type: functional
[8] = Counterscreen for activators of the function of SWI/SNF related, matrix associated, actin dependent regulator of chromatin, subfamily a, member 2 (SMARCA2, BRM): Luminescence-based cell-based high throughput dose response assay to identify non-selective compounds using the VP16 reporter assay.; type: functional
[9] = biological target: T3, Acyl-homoserine lactone acylase PvdQ (Pseudomonas aeruginosa (strain LESB58), UniProt Q9I194); experiment: P. aeruginosa PvdQ acylase inhibitors, dose response, biochemical, fluorescence, plate reader and imaging, cherry-picks (AID 493231)
T3 sequence (Q9I194 whole entry): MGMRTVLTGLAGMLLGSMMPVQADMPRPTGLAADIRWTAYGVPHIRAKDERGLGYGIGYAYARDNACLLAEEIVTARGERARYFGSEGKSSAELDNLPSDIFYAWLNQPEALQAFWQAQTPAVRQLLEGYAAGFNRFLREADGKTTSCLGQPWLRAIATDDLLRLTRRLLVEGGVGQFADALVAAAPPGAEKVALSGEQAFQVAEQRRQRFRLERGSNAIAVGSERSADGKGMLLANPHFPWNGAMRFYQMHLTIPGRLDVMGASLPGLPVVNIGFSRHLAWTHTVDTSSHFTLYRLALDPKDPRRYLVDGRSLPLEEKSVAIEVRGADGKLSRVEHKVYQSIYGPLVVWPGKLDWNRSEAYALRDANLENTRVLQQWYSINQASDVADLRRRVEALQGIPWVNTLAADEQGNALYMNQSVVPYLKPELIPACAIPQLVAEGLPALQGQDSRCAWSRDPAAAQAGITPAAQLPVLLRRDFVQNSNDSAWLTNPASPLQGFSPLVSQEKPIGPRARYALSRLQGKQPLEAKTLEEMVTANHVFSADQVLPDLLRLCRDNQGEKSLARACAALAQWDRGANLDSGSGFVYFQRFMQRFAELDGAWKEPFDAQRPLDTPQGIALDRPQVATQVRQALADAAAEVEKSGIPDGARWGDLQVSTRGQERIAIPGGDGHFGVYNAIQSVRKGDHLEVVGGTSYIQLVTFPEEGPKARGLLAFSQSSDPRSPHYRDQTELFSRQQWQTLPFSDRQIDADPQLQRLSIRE

HEK293 [10] = experiment: inhibitors of LMP1-driven NF-kB reporter, dose response, cell-based, HEK293, luciferase, cherry-pick (AID 588343); type: functional; settings: Homo sapiens
[11] = biological target: Luciferin 4-monooxygenase (Photinus pyralis, UniProt P08659); experiment: Counter Screen for Luciferase-based Assay Positives. [Related pubchem assays: 620, 618, 411 ]
HT-1080 = experiment: cytotoxicity in HT1080 fibrosarcoma cells, cell-based, fluorescence readout (AID 620); type: functional; settings: Homo sapiens
[12] = biological target: Eukaryotic translation initiation factor 4E (Mus musculus, UniProt P63073); experiment: eIF4E–eIF4G protein interaction inhibitors, dose response, biochemical, TR-FRET (AID 855); type: functional;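 also: potency for disrupting eIF4E binding to eIF4GI seen as loss of FRET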
[13] = biological target: Mannose-6-phosphate isomerase (Homo sapiens, UniProt P34949); experiment: human PMI inhibitors, high substrate, primary screen, biochemical, fluorescence intensity, high mannose 6-phosphate (AID 1220)
[14] = biological target: DNA dC->dU-editing enzyme APOBEC-3G (Homo sapiens, UniProt Q9HC16); experiment: Dose Response confirmation of small molecule APOBEC3G DNA Deaminase Inhibitors via a fluorescence-based single-stranded DNA deaminase assay. [Related pubchem assays (depositor defined):AID493012, AID493028]; type: functional
Large T antigen = Large T antigen (Simian virus 40, UniProt P03070); type: functional, Betapolyomavirus macacae;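 also: Confirmatory-stage PubChem screen for compounds that inhibit SV40 T antigen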
Protein skinhead-1 = biological target: T4, Protein skinhead-1 (Caenorhabditis elegans, UniProt P34707); type: functional
T4 sequence (P34707 whole entry): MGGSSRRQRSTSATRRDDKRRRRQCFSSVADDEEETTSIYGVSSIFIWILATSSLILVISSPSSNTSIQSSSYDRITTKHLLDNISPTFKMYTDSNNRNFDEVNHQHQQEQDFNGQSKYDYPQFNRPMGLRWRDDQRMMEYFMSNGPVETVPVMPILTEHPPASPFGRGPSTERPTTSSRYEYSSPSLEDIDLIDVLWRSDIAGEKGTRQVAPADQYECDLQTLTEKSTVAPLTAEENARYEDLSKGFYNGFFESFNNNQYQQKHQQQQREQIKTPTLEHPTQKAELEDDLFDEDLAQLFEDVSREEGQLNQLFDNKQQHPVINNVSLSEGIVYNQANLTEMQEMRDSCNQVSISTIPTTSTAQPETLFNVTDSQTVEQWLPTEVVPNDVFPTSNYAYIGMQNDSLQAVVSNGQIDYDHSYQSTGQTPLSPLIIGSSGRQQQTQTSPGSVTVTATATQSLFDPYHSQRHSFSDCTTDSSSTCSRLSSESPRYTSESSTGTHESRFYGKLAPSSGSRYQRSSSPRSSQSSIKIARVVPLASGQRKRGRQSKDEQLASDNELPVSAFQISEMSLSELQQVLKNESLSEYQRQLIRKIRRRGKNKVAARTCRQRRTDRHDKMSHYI

[15] = biological target: Heat shock protein HSP 90-alpha (Homo sapiens, UniProt P07900); experiment: Luminescence-based dose response biochemical high throughput screening assay for inhibitors of the Heat Shock Protein 90 (HSP90). [Related pubchem assays: 1831 (Summary AID.), 1846 (Confirmation screen.), 1789 (Primary screen.)]
Ephrin type-A receptor 4 = Ephrin type-A receptor 4 (Mus musculus, UniProt Q03137); experiment: inhibitors of EphA4 binding to KYL peptide, primary screen, biochemical, colorimetric, mouse EphA4 (AID 689); type: functional
Streptococcus = experiment: Group A Streptococcus viability loss, dose response, counter-screen for streptokinase expression inhibitor project, luminescence, BacTiterGlo (AID 1915); type: functional, organism-based;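 also: potency for reduction of bacterial viability or growth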
[16] = enhancers of respiration in Yfh1-depleted yeast, dose response, Friedreich's ataxia, plus single-dose screen (AID 1465); type: functional;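 also: yeast depleted of Yfh1p frataxin homolog grown on glycerol needing respiration; WST-1 tetrazolium dye reduction as measure of cellular dehydrogenase metabolic activity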
[17] = tested on: Streptococcus sp. 'group A'; experiment: growth inhibition of control SK(-) GAS strain, dose response, counter-screen for streptokinase expression inhibitor project, luminescence, kanamycin, BacTiterGlo, confirmation (AID 1900); type: functional, organism-based
NADPH oxidase 1 = NADPH oxidase 1 (Homo sapiens, UniProt Q9Y5S8); type: functional, cell-based;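 also: Cell-based assay with luminescence read-out, IC50 derived from inhibitor dose-response curves; intracellular ROS from endogenous NOX1 in intact HT29 colon cancer cells; potency of inhibitors that lower the ROS luminescence signal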
[18] = M. tuberculosis H37Rv growth inhibitors, H37Rv strain (AID 1626); type: functional
[19] = biological target: Mitogen-activated protein kinase 10 (Homo sapiens, UniProt P53779); experiment: Dose response biochemical screening assay for inhibitors of c-Jun N-Terminal Kinase 3 (JNK3). [Related pubchem assays: 746 ]
Mitogen-activated protein kinase 10, sequence (P53779 whole entry): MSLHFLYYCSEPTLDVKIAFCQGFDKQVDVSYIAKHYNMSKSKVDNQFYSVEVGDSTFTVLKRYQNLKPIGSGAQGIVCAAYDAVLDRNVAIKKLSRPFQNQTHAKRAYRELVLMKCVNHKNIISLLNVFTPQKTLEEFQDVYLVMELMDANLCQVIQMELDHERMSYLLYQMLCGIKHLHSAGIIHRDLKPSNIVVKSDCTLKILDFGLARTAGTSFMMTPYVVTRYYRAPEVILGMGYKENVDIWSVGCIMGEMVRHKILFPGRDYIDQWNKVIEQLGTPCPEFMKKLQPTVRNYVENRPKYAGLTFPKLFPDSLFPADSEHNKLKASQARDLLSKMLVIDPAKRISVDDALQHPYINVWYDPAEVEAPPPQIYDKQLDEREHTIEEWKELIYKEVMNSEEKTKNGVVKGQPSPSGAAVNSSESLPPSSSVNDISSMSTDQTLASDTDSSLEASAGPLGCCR

Ephrin type-A receptor 4, sequence (Q03137 whole entry): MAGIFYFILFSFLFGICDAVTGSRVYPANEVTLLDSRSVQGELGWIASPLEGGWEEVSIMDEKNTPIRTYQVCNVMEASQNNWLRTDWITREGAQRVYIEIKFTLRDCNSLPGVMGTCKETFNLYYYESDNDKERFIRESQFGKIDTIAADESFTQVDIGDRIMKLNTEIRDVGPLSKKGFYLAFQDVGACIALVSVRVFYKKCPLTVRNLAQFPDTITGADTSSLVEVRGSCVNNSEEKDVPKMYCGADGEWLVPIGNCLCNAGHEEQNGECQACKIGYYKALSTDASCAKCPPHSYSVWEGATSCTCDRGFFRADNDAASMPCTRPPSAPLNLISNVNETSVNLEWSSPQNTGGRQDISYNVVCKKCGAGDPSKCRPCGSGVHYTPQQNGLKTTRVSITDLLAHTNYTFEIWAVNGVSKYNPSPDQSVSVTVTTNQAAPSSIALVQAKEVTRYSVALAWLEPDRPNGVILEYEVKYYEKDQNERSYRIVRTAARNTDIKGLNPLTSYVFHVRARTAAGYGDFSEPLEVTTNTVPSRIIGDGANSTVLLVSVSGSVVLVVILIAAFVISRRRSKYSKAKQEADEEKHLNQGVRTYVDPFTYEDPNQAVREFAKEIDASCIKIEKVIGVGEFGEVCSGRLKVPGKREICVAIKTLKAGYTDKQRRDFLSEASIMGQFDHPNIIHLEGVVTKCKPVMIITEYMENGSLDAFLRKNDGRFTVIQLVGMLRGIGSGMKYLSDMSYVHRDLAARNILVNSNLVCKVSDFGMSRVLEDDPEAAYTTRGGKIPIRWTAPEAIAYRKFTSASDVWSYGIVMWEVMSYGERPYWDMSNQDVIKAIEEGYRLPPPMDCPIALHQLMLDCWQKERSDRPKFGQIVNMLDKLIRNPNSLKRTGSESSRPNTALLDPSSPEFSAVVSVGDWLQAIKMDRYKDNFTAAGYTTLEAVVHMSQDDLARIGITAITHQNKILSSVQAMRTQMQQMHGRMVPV
Luciferin 4-monooxygenase, sequence (P08659 whole entry): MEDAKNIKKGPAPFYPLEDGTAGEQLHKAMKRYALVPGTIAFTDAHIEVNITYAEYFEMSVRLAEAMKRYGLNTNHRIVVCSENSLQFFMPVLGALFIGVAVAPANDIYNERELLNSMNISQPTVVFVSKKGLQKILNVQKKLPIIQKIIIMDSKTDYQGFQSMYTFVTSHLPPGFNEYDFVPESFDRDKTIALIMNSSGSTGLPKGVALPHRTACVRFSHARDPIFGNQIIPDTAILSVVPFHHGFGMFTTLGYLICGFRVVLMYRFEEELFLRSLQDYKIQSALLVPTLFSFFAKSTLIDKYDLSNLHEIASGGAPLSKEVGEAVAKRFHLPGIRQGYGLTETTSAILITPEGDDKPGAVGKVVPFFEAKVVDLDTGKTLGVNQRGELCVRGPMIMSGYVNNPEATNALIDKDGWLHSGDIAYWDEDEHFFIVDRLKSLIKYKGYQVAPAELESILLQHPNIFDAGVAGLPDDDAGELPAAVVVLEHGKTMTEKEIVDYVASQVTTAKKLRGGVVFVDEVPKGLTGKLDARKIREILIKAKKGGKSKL
E3 ubiquitin-protein ligase Mdm2, sequence (Q00987 whole entry): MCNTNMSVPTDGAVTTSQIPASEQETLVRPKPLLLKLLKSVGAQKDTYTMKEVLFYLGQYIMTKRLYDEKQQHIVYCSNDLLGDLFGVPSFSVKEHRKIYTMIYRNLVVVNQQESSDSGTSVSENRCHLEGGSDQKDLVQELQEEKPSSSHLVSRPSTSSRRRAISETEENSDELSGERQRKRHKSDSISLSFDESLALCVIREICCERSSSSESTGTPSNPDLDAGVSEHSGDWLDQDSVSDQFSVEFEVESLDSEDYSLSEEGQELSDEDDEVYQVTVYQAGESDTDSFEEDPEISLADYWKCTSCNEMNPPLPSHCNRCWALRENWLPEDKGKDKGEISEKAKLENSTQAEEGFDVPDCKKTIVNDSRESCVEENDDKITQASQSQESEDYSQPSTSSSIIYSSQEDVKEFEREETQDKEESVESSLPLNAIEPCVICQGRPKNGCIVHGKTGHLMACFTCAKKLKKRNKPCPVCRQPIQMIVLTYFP
NADPH oxidase 1, sequence (Q9Y5S8 whole entry): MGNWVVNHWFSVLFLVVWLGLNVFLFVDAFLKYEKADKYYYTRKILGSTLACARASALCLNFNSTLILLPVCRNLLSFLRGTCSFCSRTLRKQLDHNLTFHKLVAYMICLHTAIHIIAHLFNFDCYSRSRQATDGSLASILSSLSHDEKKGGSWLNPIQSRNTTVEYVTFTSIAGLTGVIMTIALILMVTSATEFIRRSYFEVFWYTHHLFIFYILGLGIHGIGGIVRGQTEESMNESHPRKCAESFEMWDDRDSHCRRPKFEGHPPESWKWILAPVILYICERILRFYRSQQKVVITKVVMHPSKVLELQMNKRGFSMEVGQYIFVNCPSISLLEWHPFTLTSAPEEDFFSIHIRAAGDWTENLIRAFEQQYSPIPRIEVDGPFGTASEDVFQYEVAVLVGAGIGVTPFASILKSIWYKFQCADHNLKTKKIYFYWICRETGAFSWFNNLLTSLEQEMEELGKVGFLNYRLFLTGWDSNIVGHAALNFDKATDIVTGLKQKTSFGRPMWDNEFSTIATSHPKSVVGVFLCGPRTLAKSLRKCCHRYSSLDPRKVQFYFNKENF
Mannose-6-phosphate isomerase, sequence (P34949 whole entry): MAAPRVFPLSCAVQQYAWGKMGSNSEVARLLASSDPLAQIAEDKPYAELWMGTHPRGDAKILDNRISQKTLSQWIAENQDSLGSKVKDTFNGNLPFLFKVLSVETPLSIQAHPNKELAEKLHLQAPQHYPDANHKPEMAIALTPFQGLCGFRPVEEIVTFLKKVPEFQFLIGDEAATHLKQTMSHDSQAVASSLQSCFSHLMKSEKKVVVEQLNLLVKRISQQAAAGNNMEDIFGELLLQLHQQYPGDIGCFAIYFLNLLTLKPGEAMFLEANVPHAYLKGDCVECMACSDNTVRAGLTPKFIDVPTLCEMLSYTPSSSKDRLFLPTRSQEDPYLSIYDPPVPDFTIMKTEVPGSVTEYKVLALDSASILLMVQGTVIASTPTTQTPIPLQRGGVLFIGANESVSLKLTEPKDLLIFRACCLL
Large T antigen, sequence (P03070 whole entry): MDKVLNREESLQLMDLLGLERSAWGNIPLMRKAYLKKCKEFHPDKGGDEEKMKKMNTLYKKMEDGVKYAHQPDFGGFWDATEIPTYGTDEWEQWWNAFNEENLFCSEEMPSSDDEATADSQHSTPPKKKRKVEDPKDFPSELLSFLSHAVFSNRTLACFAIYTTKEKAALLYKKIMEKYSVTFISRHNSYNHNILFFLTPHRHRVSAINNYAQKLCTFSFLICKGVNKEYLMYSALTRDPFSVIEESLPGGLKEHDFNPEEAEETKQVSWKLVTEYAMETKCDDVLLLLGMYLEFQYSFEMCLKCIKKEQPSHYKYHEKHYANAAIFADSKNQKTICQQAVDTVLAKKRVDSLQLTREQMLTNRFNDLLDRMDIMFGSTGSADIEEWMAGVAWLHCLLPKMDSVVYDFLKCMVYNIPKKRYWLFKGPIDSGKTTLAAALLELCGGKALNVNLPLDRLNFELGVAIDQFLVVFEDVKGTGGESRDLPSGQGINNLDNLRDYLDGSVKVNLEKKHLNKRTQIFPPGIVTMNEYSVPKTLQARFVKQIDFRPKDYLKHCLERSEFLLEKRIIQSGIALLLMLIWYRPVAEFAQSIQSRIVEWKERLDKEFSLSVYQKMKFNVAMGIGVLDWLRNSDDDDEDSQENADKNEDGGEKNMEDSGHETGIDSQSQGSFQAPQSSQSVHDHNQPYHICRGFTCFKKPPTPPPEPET
Eukaryotic translation initiation factor 4E, sequence (P63073 whole entry): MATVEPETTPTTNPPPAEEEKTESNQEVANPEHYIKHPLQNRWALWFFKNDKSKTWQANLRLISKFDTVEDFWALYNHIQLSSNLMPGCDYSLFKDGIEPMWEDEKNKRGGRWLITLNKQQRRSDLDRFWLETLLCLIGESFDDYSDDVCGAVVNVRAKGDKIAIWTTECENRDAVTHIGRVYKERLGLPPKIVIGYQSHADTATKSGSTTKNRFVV
Photoreceptor-specific nuclear receptor, sequence (Q9Y5X4 whole entry): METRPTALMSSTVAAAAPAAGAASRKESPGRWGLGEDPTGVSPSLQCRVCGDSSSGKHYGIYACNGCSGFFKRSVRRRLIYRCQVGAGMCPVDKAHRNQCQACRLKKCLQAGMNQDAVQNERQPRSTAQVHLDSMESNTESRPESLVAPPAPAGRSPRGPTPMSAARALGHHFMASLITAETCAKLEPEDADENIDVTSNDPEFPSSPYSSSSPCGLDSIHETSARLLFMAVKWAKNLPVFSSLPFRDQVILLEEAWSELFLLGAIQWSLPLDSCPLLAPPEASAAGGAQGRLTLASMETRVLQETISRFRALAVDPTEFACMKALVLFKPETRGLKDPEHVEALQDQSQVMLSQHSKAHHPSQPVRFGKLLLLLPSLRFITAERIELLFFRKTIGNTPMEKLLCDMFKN

Question: With `Cc1ccc(S(=O)(=O)N2CCN(C(=O)CC(C)C)CC2)cc1` as the molecule, how does the EC50 [1] read?
Answer: The EC50 was 7.17 µM (not active).

Question: Which IC50 [2] does the source give for `CC(=O)c1sc(NC(=O)CCCOc2ccc(Cl)cc2)nc1C` here?
Answer: Its IC50 is 4.49 µM (active).

Question: And the IC50 [3]?
Answer: Its IC50 is 3.5 µM (active).

Question: Which EC50 [4] does the source give for `Cc1cc2c(cc1C)N(C(=O)CSC1=NCCS1)C(C)(C)c1ssc(=S)c1-2` here?
Answer: The EC50 was 22.2 µM (not active).

Question: And the EC50 [5]?
Answer: Its EC50 is 32 µM (not active).

Question: What about the EC50 (HEK293 [6]) of the same molecule?
Answer: Its EC50 is > 35.4 µM (not active).

Question: What does the source list for `CCOc1ccc(NC(=O)c2cnsn2)cc1`?
Answer: EC50 [7]: > 91.2 µM (inactive); EC50 [8]: > 91.2 µM (inactive); AC50 [9]: 81 µM (active); AC50 (HEK293 [10]): 5.39 µM (active); EC50 [11]: 48.3 µM (active); EC50 (HT-1080): > 50 µM (not active)

Question: Which IC50 [12] does the source give for `CC(C)(O)C1Cc2cc(/C=C/C(=O)O)c(O)cc2O1` (stereo not given) here?
Answer: Its IC50 is 30.4 µM (active).

Question: What about the IC50 [13] of the same molecule?
Answer: Its IC50 is 8.63 µM (active).

Question: And the IC50 [14]?
Answer: The IC50 was 38.2 µM (active).

Question: And the IC50 (Large T antigen)?
Answer: Its IC50 is 38.3 µM (active).

Question: What does the source list for `Cc1cc2ccccc2n1CCNC(=O)c1ccccc1`?
Answer: IC50 (Protein skinhead-1): > 100 µM (inactive); IC50 [15]: 2.52 µM (active); IC50 (Ephrin type-A receptor 4): 32.7 µM (active)

Question: Which IC50 (Ephrin type-A receptor 4) does the source give for `CCc1cccc2c(C(=O)CSc3nnc(-c4ccoc4C)n3C)c[nH]c12` here?
Answer: The IC50 was 12.7 µM (active).

Question: Which EC50 (Streptococcus) does the source give for `COc1cc([N+](=O)[O-])cc(/C=N\NC(=O)C2COc3ccccc3O2)c1O` (stereo not given) here?
Answer: The EC50 was 3.33 µM (active).

Question: What about the EC50 [16] of the same molecule?
Answer: Its EC50 is > 100 µM (active).

Question: What about the EC50 [17] of the same molecule?
Answer: The EC50 was 2.97 µM (active).

Question: For `O=C(NNC(=O)Nc1ccc(Cl)cc1)Nc1ccc(Cl)cc1`, which IC50 (NADPH oxidase 1) is on record?
Answer: Its IC50 is > 17 µM (not active).

Question: With `CCOC(=O)Cn1nnnc1C` as the molecule, how does the EC50 [1] read?
Answer: The EC50 was 827 µM (not active).

Question: Which results are given for `COc1ccccc1NC(=O)CN1CCN(C2c3ccccc3-c3ccccc32)CC1`?
Answer: IC50 (Protein skinhead-1): > 100 µM (inactive); IC50 [18]: > 100 µM (active)

Question: Which EC50 (Streptococcus) does the source give for `O=[N+]([O-])c1cc(C(F)(F)F)cc([N+](=O)[O-])c1NCCN=C(S)Nc1ccc(Cl)c(Cl)c1` here?
Answer: The EC50 was 6.5 µM (active).

Question: And the EC50 (HEK293 [6])?
Answer: Its EC50 is 7.47 µM (active).

Question: What about the EC50 [17] of the same molecule?
Answer: The EC50 was 4.03 µM (active).

Question: With `Cc1cc(C)cc(OCc2nnc(SCC(=O)OC(C)C)o2)c1` as the molecule, how does the IC50 [18] read?
Answer: Its IC50 is > 100 µM (active).

Question: What does the source list for `O=c1c2ccccc2nnn1CSc1nnc2sc3ccccc3n12`?
Answer: EC50 [11]: 0.52 µM (active); EC50 (HT-1080): > 50 µM (not active)

Question: Which IC50 [19] does the source give for `O=C(CCCCCn1c(=S)[nH]c2ccccc2c1=O)N1CCC2(CC1)OCCO2` here?
Answer: Its IC50 is 29.7 µM (not active).

Question: Which IC50 (NADPH oxidase 1) does the source give for `O=C(Oc1ccc([N+](=O)[O-])cc1)c1cc2ccccc2s1` here?
Answer: Its IC50 is > 17 µM (not active).
